Common to all, as to experiment: TGFα-shedding assay-based GPCR screening with chimeric Gα subunit proteins
Common to all, as to type: cell-based

In experiment [1] the target is T1, 348 GPCRs (Homo sapiens, UniProt O95838).
T1 construct: expressed in transfected cells; host or cells: HEK293A
T1 sequence (O95838 1-553): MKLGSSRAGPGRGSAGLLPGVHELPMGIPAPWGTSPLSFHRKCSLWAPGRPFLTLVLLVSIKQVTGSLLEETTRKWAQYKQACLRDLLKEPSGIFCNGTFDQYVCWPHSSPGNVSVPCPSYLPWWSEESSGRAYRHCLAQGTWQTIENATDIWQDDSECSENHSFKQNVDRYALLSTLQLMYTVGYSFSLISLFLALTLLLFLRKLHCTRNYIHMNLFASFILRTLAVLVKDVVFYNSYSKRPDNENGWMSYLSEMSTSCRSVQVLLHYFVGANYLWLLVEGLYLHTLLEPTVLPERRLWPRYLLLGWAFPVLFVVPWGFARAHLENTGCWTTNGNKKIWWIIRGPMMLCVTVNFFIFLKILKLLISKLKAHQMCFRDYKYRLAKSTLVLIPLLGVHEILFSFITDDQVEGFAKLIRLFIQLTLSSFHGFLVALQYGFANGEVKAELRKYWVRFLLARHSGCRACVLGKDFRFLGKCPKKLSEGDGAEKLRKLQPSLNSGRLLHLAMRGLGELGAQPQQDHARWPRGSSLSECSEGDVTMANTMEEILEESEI
The settings on record: 10µM, Favipiravir 100μM.

The target in experiment [2] is T2, 348 GPCRs (Homo sapiens, UniProt P49238).
T2 construct: expressed in transfected cells; host or cells: HEK293A
T2 sequence (P49238 1-355): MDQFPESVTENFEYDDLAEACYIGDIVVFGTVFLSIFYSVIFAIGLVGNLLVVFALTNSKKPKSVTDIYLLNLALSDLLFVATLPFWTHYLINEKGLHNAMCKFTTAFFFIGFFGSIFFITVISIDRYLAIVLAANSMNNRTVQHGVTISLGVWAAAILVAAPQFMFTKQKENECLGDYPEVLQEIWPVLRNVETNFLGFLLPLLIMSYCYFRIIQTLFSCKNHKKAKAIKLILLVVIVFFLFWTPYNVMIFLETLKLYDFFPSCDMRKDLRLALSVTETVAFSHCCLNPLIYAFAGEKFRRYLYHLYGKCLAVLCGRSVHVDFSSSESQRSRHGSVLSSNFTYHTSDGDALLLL
The settings on record: GPCR CX3CR1 (chemokine (C-X3-C motif) receptor 1).

In experiment [3] the target is T3, 348 GPCRs (Homo sapiens, UniProt Q9BZJ6).
T3 construct: expressed in transfected cells; host or cells: HEK293A
T3 sequence (Q9BZJ6 whole entry): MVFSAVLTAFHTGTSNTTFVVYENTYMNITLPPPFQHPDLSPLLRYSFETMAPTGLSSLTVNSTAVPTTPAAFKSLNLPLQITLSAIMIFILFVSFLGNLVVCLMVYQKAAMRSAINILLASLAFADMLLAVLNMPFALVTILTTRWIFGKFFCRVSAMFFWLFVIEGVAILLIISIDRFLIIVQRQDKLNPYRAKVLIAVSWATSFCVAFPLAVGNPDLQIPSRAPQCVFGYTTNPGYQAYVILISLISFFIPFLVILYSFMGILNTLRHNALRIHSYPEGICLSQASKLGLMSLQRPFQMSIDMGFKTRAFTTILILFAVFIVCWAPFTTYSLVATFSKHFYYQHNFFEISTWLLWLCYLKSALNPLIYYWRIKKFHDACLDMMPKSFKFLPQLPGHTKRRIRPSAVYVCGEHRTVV

For experiment [4], the target named is T4, 348 GPCRs (Homo sapiens, UniProt Q14833).
T4 construct: expressed in transfected cells; host or cells: HEK293A
T4 sequence (Q14833 33-912): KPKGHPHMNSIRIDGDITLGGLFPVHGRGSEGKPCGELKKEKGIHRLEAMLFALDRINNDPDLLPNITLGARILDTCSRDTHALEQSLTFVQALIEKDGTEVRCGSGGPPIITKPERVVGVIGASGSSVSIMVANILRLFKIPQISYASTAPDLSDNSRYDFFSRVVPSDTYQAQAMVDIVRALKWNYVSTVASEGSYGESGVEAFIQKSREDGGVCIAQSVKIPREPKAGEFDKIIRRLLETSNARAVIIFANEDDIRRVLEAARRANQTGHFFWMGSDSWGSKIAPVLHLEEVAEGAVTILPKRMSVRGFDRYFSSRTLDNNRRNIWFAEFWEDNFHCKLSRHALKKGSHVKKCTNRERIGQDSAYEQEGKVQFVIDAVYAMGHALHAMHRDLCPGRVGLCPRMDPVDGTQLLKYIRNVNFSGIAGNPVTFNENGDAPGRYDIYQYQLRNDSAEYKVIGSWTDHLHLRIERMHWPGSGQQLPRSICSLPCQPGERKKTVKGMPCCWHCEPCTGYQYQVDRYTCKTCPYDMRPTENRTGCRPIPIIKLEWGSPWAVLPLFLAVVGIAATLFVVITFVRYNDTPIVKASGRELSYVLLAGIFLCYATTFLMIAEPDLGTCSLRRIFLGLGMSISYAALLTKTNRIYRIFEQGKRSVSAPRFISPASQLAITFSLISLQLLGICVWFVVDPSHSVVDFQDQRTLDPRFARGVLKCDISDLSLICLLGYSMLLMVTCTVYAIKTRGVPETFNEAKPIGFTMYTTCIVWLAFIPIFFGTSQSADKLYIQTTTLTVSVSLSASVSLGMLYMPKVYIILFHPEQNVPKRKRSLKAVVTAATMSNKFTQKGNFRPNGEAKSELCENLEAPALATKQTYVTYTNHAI
The settings on record: 10µM, Favipiravir 100μM.

In experiment [5] the target is T5, 348 GPCRs (Homo sapiens, UniProt Q9H255).
T5 construct: expressed in transfected cells; host or cells: HEK293A
T5 sequence (Q9H255 1-320): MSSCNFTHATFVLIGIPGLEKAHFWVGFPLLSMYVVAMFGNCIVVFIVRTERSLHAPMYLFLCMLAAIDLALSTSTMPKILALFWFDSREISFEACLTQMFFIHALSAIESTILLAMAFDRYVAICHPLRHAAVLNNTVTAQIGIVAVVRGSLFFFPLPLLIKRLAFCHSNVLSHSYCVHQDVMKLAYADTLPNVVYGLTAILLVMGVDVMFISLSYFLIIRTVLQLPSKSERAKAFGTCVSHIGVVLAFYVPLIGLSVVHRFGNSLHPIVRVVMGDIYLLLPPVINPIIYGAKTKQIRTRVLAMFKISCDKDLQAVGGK
The settings on record: 10µM, Favipiravir 100μM.

Experiment [6] deals with T6, 348 GPCRs (Homo sapiens, UniProt Q96G91).
T6 construct: expressed in transfected cells; host or cells: HEK293A
T6 sequence (Q96G91 1-374): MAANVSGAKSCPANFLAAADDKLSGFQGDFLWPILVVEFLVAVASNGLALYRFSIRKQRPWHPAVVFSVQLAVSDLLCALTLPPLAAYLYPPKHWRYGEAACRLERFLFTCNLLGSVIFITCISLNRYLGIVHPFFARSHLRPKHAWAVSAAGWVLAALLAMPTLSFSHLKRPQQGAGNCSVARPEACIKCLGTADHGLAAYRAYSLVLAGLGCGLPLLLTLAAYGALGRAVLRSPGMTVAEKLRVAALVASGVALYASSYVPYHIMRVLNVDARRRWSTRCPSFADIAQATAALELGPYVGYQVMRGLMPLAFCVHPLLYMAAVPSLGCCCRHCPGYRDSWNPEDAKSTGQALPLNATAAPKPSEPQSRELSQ

Experiment [7] has as its target T7, 348 GPCRs (Homo sapiens, UniProt Q9H244).
T7 construct: expressed in transfected cells; host or cells: HEK293A

Experiment [8] has as its target T8, 348 GPCRs (Homo sapiens, UniProt P49683).
T8 construct: expressed in transfected cells; host or cells: HEK293A
T8 sequence (P49683 1-370): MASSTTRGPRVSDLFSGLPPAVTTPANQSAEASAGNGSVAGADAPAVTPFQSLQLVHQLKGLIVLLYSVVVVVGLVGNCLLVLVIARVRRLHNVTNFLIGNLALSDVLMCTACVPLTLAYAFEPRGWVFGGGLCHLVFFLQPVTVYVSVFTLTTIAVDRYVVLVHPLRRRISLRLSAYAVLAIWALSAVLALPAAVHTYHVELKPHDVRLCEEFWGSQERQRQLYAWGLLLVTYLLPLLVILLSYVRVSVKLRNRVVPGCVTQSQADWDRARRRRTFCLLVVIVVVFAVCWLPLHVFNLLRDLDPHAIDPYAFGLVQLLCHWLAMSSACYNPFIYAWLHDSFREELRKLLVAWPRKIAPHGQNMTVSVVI
The settings on record: 10µM, Favipiravir 100μM.

In experiment [9] the target is T9, 348 GPCRs (Homo sapiens, UniProt Q9H3N8).
T9 construct: expressed in transfected cells; host or cells: HEK293A
T9 sequence (Q9H3N8 whole entry): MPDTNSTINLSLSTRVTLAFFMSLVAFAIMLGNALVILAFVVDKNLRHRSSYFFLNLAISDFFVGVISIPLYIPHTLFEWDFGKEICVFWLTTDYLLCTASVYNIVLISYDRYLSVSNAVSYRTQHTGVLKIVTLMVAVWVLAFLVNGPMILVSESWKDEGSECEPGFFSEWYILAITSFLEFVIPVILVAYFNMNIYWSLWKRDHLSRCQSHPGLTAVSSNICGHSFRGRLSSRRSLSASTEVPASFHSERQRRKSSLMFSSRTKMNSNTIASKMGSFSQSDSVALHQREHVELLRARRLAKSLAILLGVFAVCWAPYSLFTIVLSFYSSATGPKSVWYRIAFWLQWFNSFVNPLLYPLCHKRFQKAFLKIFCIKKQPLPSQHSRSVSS
The settings on record: 10µM, Favipiravir 100μM.

Setting [10] is: GLP2R (glucagon like peptide 2 receptor), read-out: % GPCR activation compared to TPA.
Where [11] appears, read: GRM4 (glutamate receptor, metabotropic 4), read-out: % GPCR activation compared to TPA.
Setting [12] is: OR51E2 (olfactory receptor, family 51, subfamily E, member 2), read-out: % GPCR activation compared to TPA.
Where [13] appears, read: PRLHR (prolactin releasing hormone receptor), read-out: % GPCR activation compared to TPA.
[14] abbreviates: H4 (histamine receptor H4), read-out: % GPCR activation compared to TPA.
[15] abbreviates: read-out: % GPCR activation compared to TPA, GLP2R (glucagon like peptide 2 receptor).
Where [16] appears, read: read-out: % GPCR activation compared to TPA, GPCR GPR63 (G Protein-Coupled Receptor 63).
The mark [17] stands for this setting: read-out: % GPCR activation compared to TPA, GRM4 (glutamate receptor, metabotropic 4).
Setting [18] is: read-out: % GPCR activation compared to TPA, OR51E2 (olfactory receptor, family 51, subfamily E, member 2).
[19] abbreviates: read-out: % GPCR activation compared to TPA, GPCR P2Y11 (purinergic receptor P2Y, G-protein coupled, 11).
Where [20] appears, read: read-out: % GPCR activation compared to TPA, GPCR P2Y12 (purinergic receptor P2Y, G-protein coupled, 12).
Where [21] appears, read: read-out: % GPCR activation compared to TPA, PRLHR (prolactin releasing hormone receptor).
Setting [22] is: read-out: % GPCR activation compared to TPA, H4 (histamine receptor H4).
Setting [23] is: GPCR GPR63 (G Protein-Coupled Receptor 63), read-out: % GPCR activation compared to TPA.
Where [24] appears, read: GPCR P2Y11 (purinergic receptor P2Y, G-protein coupled, 11), read-out: % GPCR activation compared to TPA.
The mark [25] stands for this setting: GPCR P2Y12 (purinergic receptor P2Y, G-protein coupled, 12), read-out: % GPCR activation compared to TPA.

From publication PMC10175918 (Communications Biology, 2023) come the findings set out here.

Read-outs that look alike come from different tables or passages of the source.

T7 sequence (Q9H244 whole entry): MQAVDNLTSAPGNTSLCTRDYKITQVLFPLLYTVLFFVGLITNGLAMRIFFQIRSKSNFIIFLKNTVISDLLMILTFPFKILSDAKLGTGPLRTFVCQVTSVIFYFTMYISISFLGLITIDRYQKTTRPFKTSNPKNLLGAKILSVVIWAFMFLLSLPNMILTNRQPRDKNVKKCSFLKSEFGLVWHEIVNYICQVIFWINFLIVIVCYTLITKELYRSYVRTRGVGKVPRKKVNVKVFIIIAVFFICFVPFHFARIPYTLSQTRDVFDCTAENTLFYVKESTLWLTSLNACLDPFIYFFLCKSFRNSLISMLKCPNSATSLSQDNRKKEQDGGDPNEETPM

Take `NC(=O)c1nc(F)cnc1O` [favipiravir, 6-fluoro-3-hydroxy-2-pyrazinecarboxamide]: the activation at 10 µM was 2.97% on 348 GPCRs [1] (setting [10]), 1.65% on 348 GPCRs [4] (setting [11]) and -0.415% on 348 GPCRs [5] (setting [12]). Besides, the “% GPCR activation compared to TPA” value at 348 GPCRs [2] (100μM) was 0.06344%. For the same compound, the activation at 100 µM on 348 GPCRs [3] (GPCR GPR63 (G Protein-Coupled Receptor 63), 100μM, read-out: % GPCR activation compared to TPA) is -0.607%; at 348 GPCRs [6] (GPCR P2Y11 (purinergic receptor P2Y, G-protein coupled, 11), 100μM, read-out: % GPCR activation compared to TPA) it was -11.1%; on 348 GPCRs [7] (GPCR P2Y12 (purinergic receptor P2Y, G-protein coupled, 12), 100μM, read-out: % GPCR activation compared to TPA) it was -4.09%; on 348 GPCRs [8] (setting [13]), 1.46%; on 348 GPCRs [9] (setting [14]), 1.77%.

As to `CC(C)OC(=O)[C@H](C)N[P@](=O)(OC[C@H]1O[C@@H](n2ccc(=O)[nH]c2=O)[C@](C)(F)[C@@H]1O)Oc1ccccc1` [sofosbuvir], the activation at 10 µM at 348 GPCRs [1] (setting [15]) is -0.662%; at 348 GPCRs [3] (setting [16]), 1.22%; at 348 GPCRs [4] (setting [17]), 2.56%; on 348 GPCRs [5] (setting [18]), -1.75%; on 348 GPCRs [6] (setting [19]) it was -20.5%; on 348 GPCRs [7] (setting [20]), -2.59%. Besides, at 348 GPCRs [2] (10µM), the “% GPCR activation compared to TPA” value is recorded as 0.2471%. For the same compound, the values for the activation at 100 µM at 348 GPCRs [8] (setting [21]) and at 348 GPCRs [9] (setting [22]) were -8.24% and -3.28%, respectively.

For the compound `CCC(CC)COC(=O)[C@H](C)N[P@](=O)(OC[C@H]1O[C@@](C#N)(c2ccc3c(N)ncnn23)[C@H](O)[C@@H]1O)Oc1ccccc1` [remdesivir], the activation at 10 µM was 1.76% on 348 GPCRs [1] (setting [15]); 1.1% at 348 GPCRs [3] (setting [16]); -0.0103% on 348 GPCRs [4] (setting [17]); 0.358% on 348 GPCRs [5] (setting [18]); -12.5% at 348 GPCRs [6] (setting [19]); 0.718% at 348 GPCRs [7] (setting [20]). Moreover, the “% GPCR activation compared to TPA” value on 348 GPCRs [2] (10µM) was determined as 2.076%. The activation at 100 µM on 348 GPCRs [8] (setting [21]) was 0.33%; at 348 GPCRs [9] (setting [22]) it was 7.16%.

For `N#C[C@@]1(c2ccc3c(N)ncnn23)O[C@H](CO)[C@@H](O)[C@H]1O` [GS441524], the activation at 10 µM is 1.04% on 348 GPCRs [1] (setting [10]); 2.45% at 348 GPCRs [3] (setting [23]); 1.52% on 348 GPCRs [4] (setting [11]); 0.751% on 348 GPCRs [5] (setting [12]); -16.3% on 348 GPCRs [6] (setting [24]); -4.31% at 348 GPCRs [7] (setting [25]). In addition, the “% GPCR activation compared to TPA” value at 348 GPCRs [2] (10µM) is on record as -0.5209%. For the same compound, the values for the activation at 100 µM at 348 GPCRs [8] (setting [13]) and at 348 GPCRs [9] (setting [14]) were -1.86% and 5.54%, respectively.

With `CC(C)C(=O)OC[C@H]1O[C@@H](n2ccc(NO)nc2=O)[C@H](O)[C@@H]1O` [molnupiravir], the activation at 10 µM at 348 GPCRs [1] (setting [10]) is 0.598%; on 348 GPCRs [3] (setting [23]) it was -0.167%; on 348 GPCRs [4] (setting [11]), -0.478%; at 348 GPCRs [5] (setting [12]) it was -0.989%; on 348 GPCRs [6] (setting [24]) it was -21.8%; on 348 GPCRs [7] (setting [25]), -6.75%. Moreover, on 348 GPCRs [2] (10µM), the “% GPCR activation compared to TPA” value is given as -0.5795%. The activation at 100 µM is -3.13% on 348 GPCRs [8] (setting [13]) and -3.71% on 348 GPCRs [9] (setting [14]).
